{"source": "patent US20080221134A1", "about": "“8-ALKYNYLXANTHINES AND DERIVATIVES” (priority 2006, published 2008)", "key": {"human A2A receptor": {"biological_target": "human A2A receptor (Homo sapiens, UniProt P29274)", "sequence (P29274 whole entry)": "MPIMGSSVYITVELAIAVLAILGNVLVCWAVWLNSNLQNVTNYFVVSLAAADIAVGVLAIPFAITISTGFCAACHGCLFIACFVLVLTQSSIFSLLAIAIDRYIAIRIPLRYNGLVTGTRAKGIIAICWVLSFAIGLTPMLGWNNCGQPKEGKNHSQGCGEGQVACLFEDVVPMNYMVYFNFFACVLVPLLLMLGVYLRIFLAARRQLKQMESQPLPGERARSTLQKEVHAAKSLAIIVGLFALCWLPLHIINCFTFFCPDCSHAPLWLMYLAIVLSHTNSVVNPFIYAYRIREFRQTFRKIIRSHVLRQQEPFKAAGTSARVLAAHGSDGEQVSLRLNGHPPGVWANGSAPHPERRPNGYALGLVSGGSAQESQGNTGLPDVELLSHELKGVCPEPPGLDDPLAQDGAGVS", "experiment": "Human A2A receptor IC50/Imax (unpublished results)", "type": "binding"}, "[1]": {"test_system": "CGS-21680 induced catalepsy", "experiment": "Acute CGS-21680 induced catalepsy test", "type": "in vivo, rat", "settings": "i.p. in DMSO, 0.1-10 mg/kg; listed as 8-(phenylethynyl)-DPMX", "method": "(§1) Animals were administered with Reserpine or CGS-21680 according to methods known to the skilled person in the art. These models and procedures are e.g. described by Ferré S. et al., Neurosci. Let., 1991, 130, 162; Ferré S. et al., Neuroscience, 1992, 51, 501; Kafka S. H. et al., Eur. J. Pharmacol., 1996, 295, 147; Rimondini R. et al., Neuropsychopharmacology, 1997, 17, 82 and are herein incorporated by reference. In the acute CGS-21680 induced catalepsy model (CGS model) the test compounds (TC, compounds according to the present invention) and CGS-21680 (i.p. 2 mg/kg) were administered 60 minutes before the start of the catalepsy bar measurement and behavioural testing described below (see also FIG. 1). In the acute Reserpine induced catalepsy model (RES model Resperine (subcutaneously, 3 mg/kg) was injected 24 h prior to the test compound application. Catalepsy bar measurement took place 60 minutes after test compound application (see FIG. 1). Test compounds were administered i.p. in DMSO in following doses (mg/kg): 0.1, 0.3, 1, 3, 10.\n(§2) Dimethylsulfoxide (DMSO) was used as vehicle for the test compounds and Reserpine. Reserpine was dissolved in DMSO in a concentration of 3 mg/ml. A 10% (w/v) Cyclodextrin solution was used as vehicle for CGS-21680. CGS 21680 was dissolved in 10% (w/v) Cyclodextrine in a concentration of 2 mg/ml.\nCaffeine was used as a reference compound in the CGS-21680 induced catalepsy model. A caffeine solution was prepared with water for injection purposes to a concentration of 30 mg/ml. The solution was administered intraperitoneally in a volume of 1 ml/kg (30 mg/kg) 30 minutes before the beginning of testing and after CGS-21680 pre-treatment (1 hour prior to testing).\nThe catalepsy bar after CGS-21680 administration was measured (CAT) as follows: The rat was placed with its forepaws on a log of wood. […] If the animal descended faster than 1 second, the trial was regarded as invalid. If more than 20 trials were rated as invalid, the values of all uncompleted trials were noted as 0. The animal was tested until five trials had been completed and the time for each trial was noted. Only the values of the last three trials were used for the analysis. The following parameters were calculated: maximum time to descend (s) and median time to descend (s).\nBehavioural observation (BO) included the measurement of the body tone, inclined plane and grip strength.\nThe rat is taken in the hand of the observer and the animal's body tone is rated as normal, soft or hard. The rating is performed immediately after taking the animal from its home cage before performance of catalepsy testing. The following parameters were calculated: mean occurrence of hard body tone and mean occurrence of soft body tone.\nThe rat is horizontally placed to an inclined plane for a maximum time of 30 seconds. Time to reach bottom or top is measured. […] The test is performed after catalepsy testing. Time to leave the inclined plane(s) was measured.\nThe rat is put on a grip and the observer pulls the animal back on his tail. The strength (fore paws and hind paws) by which it holds on the grid is scored as grasping and pulling, grasping without pulling or no grasping. The test is performed after the inclined plane test. The following parameters were calculated: mean score of fore paw grip strength and mean score of hind paw grip strength.\n(§3) All statistical tests were performed two tailed with a value of p<0.05 considered as significant.\n(§4) To assess the effects of CGS-21680 and Reserpine pre-treatment compared to vehicle treated controls statistical comparisons between the test groups were performed using a U test statistic.\nTo assess the effects of test compounds on CGS-21680 and Reserpine pre-treated animals correlation analyses including animals from test groups and the respective test compound-treated groups were performed. […]"}, "[2]": {"experiment": "Water solubility (statement)", "type": "physicochemical", "settings": "listed as 8-(phenylethynyl)-DMPX"}, "[3]": {"test_system": "Reserpine induced catalepsy", "experiment": "Acute Reserpine induced catalepsy test", "type": "in vivo, rat", "settings": "i.p. in DMSO, 0.1-10 mg/kg; listed as 8-(phenylethynyl)-DPMX", "method": "as §1, §2\nApomorphine was used as a reference compound in the Reserpine induced catalepsy model. Apomorphine injection solution was diluted with purified water to a concentration of 0.3 mg/ml. The solution was administered subcutaneously (s.c.) in a volume of 1 ml/kg (0.3 mg/kg) 20 minutes before the begin of testing after Reserpine pre-treatment (25 hours prior to testing).\nThe catalepsy bar after Reserpine administration was measured (CAT) as follows: The rat was placed with its forepaws on a log of wood. […] The animal was tested for three trials and the time for each trial was noted. The following parameters were calculated: maximum time to descend (s) and median time to descend (s). […]\nas §3, §4\nTo assess the effects of test compounds on CGS-21680 and Reserpine pre-treated animals correlation analyses including animals from test groups and the respective test compound-treated groups were performed.\nAdditionally, parametric and non-parametric comparisons for the median catalepsy measure were performed to assess the reliability of the method. In case of parametric testing a GLM analyses was performed including animals from a control group (only vehicle treated animals) and the respective test compound-treated groups with dose as a categorical factor. In case of a significant result, a Dunnett's post hoc test was performed between the according test compound groups and a control group as reference group. In case of non-parametric testing a Kruskal-Wallis H-test was performed including animals from a control group and the respective test compound groups. In case of a significant result single U-test comparisons were performed between a control group and the groups treated with different doses of the test compound."}}, "data": [{"compound": "C#CCn1c(=O)c2c(nc(C#Cc3ccccc3)n2C)n(C)c1=O", "values": [{"measurement": "IC50", "setting": "human A2A receptor", "result": "> 300", "unit": "nM"}, {"measurement": "Imax at the human receptor", "setting": "human A2A receptor", "result": "about 37%"}, {"measurement": "effect on catalepsy time in acute CGS-21680 induced catalepsy model", "setting": "[1]", "result": "inactive"}, {"measurement": "water solubility (in words)", "setting": "[2]", "result": "low solubility"}, {"measurement": "effect on catalepsy time in acute Reserpine induced catalepsy model", "setting": "[3]", "result": "inactive"}]}]}
